Test results taken from PubChem BioAssay (NCI).
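Cultured in 96-well plates, cells were exposed to test compound for 48 hours across five concentrations. Here, GI50 denotes the concentration required for 50% inhibition of growth. TGI: total growth inhibition.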

Columns and labels:
Experiment in all cases: DTP human tumour cell line panel, 48 h
ACHN renal = tested on: ACHN renal
EKVX NSCLC = tested on: EKVX NSCLC
IGROV1 ovarian = tested on: IGROV1 ovarian
SK-MEL-2 melanoma = tested on: SK-MEL-2 melanoma
SK-MEL-28 melanoma = tested on: SK-MEL-28 melanoma
SK-OV-3 ovarian = tested on: SK-OV-3 ovarian
SNB-75 CNS = tested on: SNB-75 CNS
U251 CNS = tested on: U251 CNS
UACC-62 melanoma = tested on: UACC-62 melanoma
MCF7 breast = tested on: MCF7 breast

Which results are given for COC(=O)C(C(=O)OC)C1CCCC(=O)C1 (stereo unspecified)?
TGI (ACHN renal): > 100 µM; TGI (EKVX NSCLC): > 100 µM; TGI (IGROV1 ovarian): > 100 µM; TGI (SK-MEL-2 melanoma): 0.503 µM; TGI (SK-MEL-28 melanoma): > 100 µM; TGI (SK-OV-3 ovarian): > 100 µM; TGI (SNB-75 CNS): > 100 µM; TGI (U251 CNS): > 100 µM; TGI (UACC-62 melanoma): > 100 µM

What does the source list for Cn1cnc([N+](=O)[O-])c1Sc1nccn1-c1cccc2ccccc12?
TGI (ACHN renal): 94.2 µM; TGI (EKVX NSCLC): 92.4 µM; TGI (IGROV1 ovarian): > 100 µM; TGI (SK-MEL-2 melanoma): 37.5 µM; TGI (SK-MEL-28 melanoma): 67.8 µM; TGI (SK-OV-3 ovarian): > 100 µM; TGI (SNB-75 CNS): 87.5 µM; TGI (U251 CNS): > 100 µM; TGI (UACC-62 melanoma): 33.9 µM

What does the source list for CC(=O)OC[C@@H](COC(=O)/C=C/c1ccc(O)cc1)OC1OC(CO)C(O)C(O)C1O (stereo partly specified)?
TGI (ACHN renal): > 100 µM; TGI (EKVX NSCLC): > 100 µM; TGI (IGROV1 ovarian): > 100 µM; TGI (SK-MEL-2 melanoma): > 100 µM; TGI (SK-MEL-28 melanoma): > 100 µM; TGI (SK-OV-3 ovarian): > 100 µM; TGI (SNB-75 CNS): > 100 µM; TGI (U251 CNS): > 100 µM; TGI (UACC-62 melanoma): > 100 µM

How did the TGI (ACHN renal) turn out when C/C(CC(=O)Nc1ccc(C)c(C)c1)=N\NC(N)=O was run?
The TGI was over 100 µM.

And the TGI (EKVX NSCLC)?
The TGI was over 100 µM.

What about the TGI (IGROV1 ovarian) of the same compound?
Its TGI is over 100 µM.

What about the TGI (SK-MEL-2 melanoma) of the same compound?
Its TGI is over 100 µM.

And the TGI (SK-MEL-28 melanoma)?
Its TGI is over 100 µM.

And the TGI (SK-OV-3 ovarian)?
The TGI was over 100 µM.

What about the TGI (SNB-75 CNS) of the same compound?
The TGI was over 100 µM.

And the TGI (U251 CNS)?
Its TGI is over 100 µM.

What about the TGI (UACC-62 melanoma) of the same compound?
Its TGI is over 100 µM.

COc1ccc2ccccc2c1C1NC(=O)c2ccccc2N1 (stereo unspecified) was tested. Which TGI (ACHN renal) did it give?
The TGI was over 84.5 µM.

And the TGI (EKVX NSCLC)?
The TGI was over 100 µM.

What about the TGI (IGROV1 ovarian) of the same compound?
The TGI was over 100 µM.

What about the TGI (MCF7 breast) of the same compound?
Its TGI is 29.4 µM.

What about the TGI (SK-MEL-2 melanoma) of the same compound?
Its TGI is over 100 µM.

And the TGI (SK-MEL-28 melanoma)?
The TGI was over 100 µM.

And the TGI (SK-OV-3 ovarian)?
Its TGI is 9.29 µM.

And the TGI (U251 CNS)?
The TGI was 8.78 µM.

With Cc1cccc(C(C)(C)C)c1NC(=O)CC1C(=O)Nc2ccccc2S1(=O)=O (stereo unspecified) as the compound, how does the TGI (ACHN renal) read?
The TGI was 22.7 µM.

What about the TGI (EKVX NSCLC) of the same compound?
The TGI was 14.5 µM.

And the TGI (IGROV1 ovarian)?
Its TGI is 21.8 µM.

And the TGI (SK-MEL-2 melanoma)?
The TGI was 21.2 µM.

What about the TGI (SK-MEL-28 melanoma) of the same compound?
Its TGI is 30.3 µM.

What about the TGI (SNB-75 CNS) of the same compound?
Its TGI is 30.4 µM.

And the TGI (U251 CNS)?
Its TGI is 20.2 µM.

What about the TGI (UACC-62 melanoma) of the same compound?
Its TGI is 18.6 µM.

Which GI50 (ACHN renal) does the source give for C[As](C)SCC(COC(=O)C(Cl)c1ccccc1)OC(=O)C(Cl)c1ccccc1 (stereo unspecified) here?
Its GI50 is 1.36 µM.

What about the TGI (ACHN renal) of the same compound?
Its TGI is 11.4 µM.

And the GI50 (EKVX NSCLC)?
The GI50 was 2.44 µM.

What about the TGI (EKVX NSCLC) of the same compound?
Its TGI is 24.3 µM.

And the GI50 (IGROV1 ovarian)?
The GI50 was 1.93 µM.

And the TGI (IGROV1 ovarian)?
Its TGI is over 42.6 µM.

What about the GI50 (MCF7 breast) of the same compound?
Its GI50 is 0.46 µM.

What about the TGI (MCF7 breast) of the same compound?
The TGI was 12.9 µM.

And the GI50 (SK-MEL-28 melanoma)?
The GI50 was 10.6 µM.

What about the TGI (SK-MEL-28 melanoma) of the same compound?
Its TGI is 28.1 µM.

And the GI50 (SK-OV-3 ovarian)?
Its GI50 is 2.63 µM.

And the TGI (SK-OV-3 ovarian)?
Its TGI is over 54.9 µM.

And the GI50 (SNB-75 CNS)?
The GI50 was 10.6 µM.

What about the TGI (SNB-75 CNS) of the same compound?
The TGI was 42.6 µM.

And the GI50 (U251 CNS)?
The GI50 was 3.42 µM.

And the TGI (U251 CNS)?
The TGI was 31.6 µM.

What about the GI50 (UACC-62 melanoma) of the same compound?
Its GI50 is 3.19 µM.

And the TGI (UACC-62 melanoma)?
The TGI was 52.9 µM.

What does the source list for CCOC(=O)N1CCC(=O)C(CNC23CC4CC(CC(C4)C2)C3)C1 (stereo unspecified)?
TGI (ACHN renal): 34.8 µM; TGI (EKVX NSCLC): > 100 µM; TGI (SK-MEL-2 melanoma): > 100 µM; TGI (SK-MEL-28 melanoma): 32.1 µM; TGI (SK-OV-3 ovarian): > 100 µM; TGI (U251 CNS): > 100 µM; TGI (UACC-62 melanoma): > 100 µM

What does the source list for COc1c2ccoc2c(OC)c2oc(=O)ccc12?
TGI (ACHN renal): > 100 µM; TGI (EKVX NSCLC): > 100 µM; TGI (IGROV1 ovarian): > 100 µM; TGI (MCF7 breast): > 100 µM; TGI (SK-MEL-28 melanoma): > 100 µM; TGI (SNB-75 CNS): 63.6 µM; TGI (U251 CNS): > 100 µM; TGI (UACC-62 melanoma): > 100 µM

With CN1C(=O)C2C3C=C4c5ccccc5N(c5ccccc5)C4(C2C1=O)[C@H]1C(=O)N(C)C(=O)[C@@H]31 (stereo partly specified) as the compound, how does the TGI (ACHN renal) read?
Its TGI is over 100 µM.

What about the TGI (EKVX NSCLC) of the same compound?
The TGI was over 100 µM.

What about the TGI (SK-MEL-2 melanoma) of the same compound?
The TGI was over 100 µM.

And the TGI (SK-MEL-28 melanoma)?
The TGI was over 100 µM.

And the TGI (SK-OV-3 ovarian)?
Its TGI is over 100 µM.

And the TGI (SNB-75 CNS)?
The TGI was over 100 µM.

And the TGI (U251 CNS)?
Its TGI is over 100 µM.

And the TGI (UACC-62 melanoma)?
Its TGI is over 100 µM.

What does the source list for CCC[CH2][Sn]1([CH2]CCC)[O]CC(CN(C)Cc2ccccc2)[O]1 (stereo unspecified)?
GI50 (ACHN renal): 11.2 µM; TGI (ACHN renal): 23.3 µM; GI50 (EKVX NSCLC): 10.7 µM; TGI (EKVX NSCLC): 27.3 µM; GI50 (IGROV1 ovarian): 14.8 µM; TGI (IGROV1 ovarian): 30.5 µM; GI50 (SK-MEL-2 melanoma): 4.27 µM; TGI (SK-MEL-2 melanoma): 15.9 µM; GI50 (SK-MEL-28 melanoma): 13.3 µM; TGI (SK-MEL-28 melanoma): 26.5 µM; GI50 (SK-OV-3 ovarian): 15.6 µM; TGI (SK-OV-3 ovarian): 33.2 µM; GI50 (SNB-75 CNS): 3.47 µM; TGI (SNB-75 CNS): 16.2 µM; GI50 (U251 CNS): 5.75 µM; TGI (U251 CNS): 17.8 µM; GI50 (UACC-62 melanoma): 4.31 µM; TGI (UACC-62 melanoma): 16.1 µM
